Experimental data taken from ChEMBL document CHEMBL1140940, “Pyrido[2,3-d]pyrimidin-5-ones: a novel class of antiinflammatory macrophage colony-stimulating factor-1 receptor inhibitors” (J Med Chem, 2009).
Activity calls are given as the source filed them. The rule behind the calls is not given here.

Legend:
[1] = Half life in mouse at 2 mg/kg, iv; assay type: ADME, organism-based; parameters: dose 2 mg/kg, route intravenous; conditions: in vivo
Rattus norvegicus [2] = test: Inhibition of ankle swelling in Freund's complete adjuvant-induced Lewis rat arthritis model at 1 mg/kg, po twice daily administered on day 8 post adjuvant challenge measured on day 21 post adjuvant challenge relative to control; assay type: functional
[3] = target: Mast/stem cell growth factor receptor Kit (Homo sapiens, UniProt P10721); test: Inhibition of KIT by fluorescence polarization competition immunoassay
Mast/stem cell growth factor receptor Kit, sequence (P10721 whole entry): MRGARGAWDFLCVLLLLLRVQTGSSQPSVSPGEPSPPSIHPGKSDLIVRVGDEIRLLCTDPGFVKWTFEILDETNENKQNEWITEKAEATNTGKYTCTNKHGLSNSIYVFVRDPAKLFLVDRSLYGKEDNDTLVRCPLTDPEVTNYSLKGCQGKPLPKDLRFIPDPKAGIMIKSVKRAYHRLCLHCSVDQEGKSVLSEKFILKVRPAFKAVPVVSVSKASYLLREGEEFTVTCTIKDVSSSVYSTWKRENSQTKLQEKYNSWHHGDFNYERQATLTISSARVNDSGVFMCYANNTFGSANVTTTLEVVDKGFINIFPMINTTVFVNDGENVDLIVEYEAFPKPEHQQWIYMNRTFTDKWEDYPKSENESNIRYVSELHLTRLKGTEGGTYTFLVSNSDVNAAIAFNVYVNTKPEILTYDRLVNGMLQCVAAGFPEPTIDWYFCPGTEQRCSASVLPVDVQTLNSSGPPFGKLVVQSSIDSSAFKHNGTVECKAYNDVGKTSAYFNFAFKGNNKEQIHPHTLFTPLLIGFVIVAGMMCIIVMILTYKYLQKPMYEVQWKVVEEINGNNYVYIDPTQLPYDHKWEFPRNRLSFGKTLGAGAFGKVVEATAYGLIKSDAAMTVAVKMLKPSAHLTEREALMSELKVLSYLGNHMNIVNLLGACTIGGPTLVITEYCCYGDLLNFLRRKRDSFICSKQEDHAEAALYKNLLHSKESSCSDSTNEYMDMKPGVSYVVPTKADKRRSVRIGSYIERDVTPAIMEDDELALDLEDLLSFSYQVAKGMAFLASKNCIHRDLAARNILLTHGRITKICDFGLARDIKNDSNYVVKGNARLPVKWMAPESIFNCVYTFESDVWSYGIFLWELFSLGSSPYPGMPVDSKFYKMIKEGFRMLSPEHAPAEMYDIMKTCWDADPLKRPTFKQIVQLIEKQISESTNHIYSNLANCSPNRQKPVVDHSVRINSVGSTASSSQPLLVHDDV

[4] = Half life in mouse at 10 mg/kg, po; assay type: ADME, organism-based; parameters: dose 10 mg/kg, route oral; conditions: in vivo
Mus musculus = test: Reduction of CSF1-induced increase in c-fos mRNA expression in B6C3F1 mouse at 3 mg/kg, po administered 6 hrs before CSF1 challenge measured 15 mins post CSF1 challenge relative to control; assay type: functional; parameters: scale not given: the % may be the effect or the level left
Insulin receptor = Insulin receptor (Homo sapiens, UniProt P06213); test: Inhibition of IRKbeta by fluorescence polarization competition immunoassay
Insulin receptor, sequence (P06213 28-758 limits assumed): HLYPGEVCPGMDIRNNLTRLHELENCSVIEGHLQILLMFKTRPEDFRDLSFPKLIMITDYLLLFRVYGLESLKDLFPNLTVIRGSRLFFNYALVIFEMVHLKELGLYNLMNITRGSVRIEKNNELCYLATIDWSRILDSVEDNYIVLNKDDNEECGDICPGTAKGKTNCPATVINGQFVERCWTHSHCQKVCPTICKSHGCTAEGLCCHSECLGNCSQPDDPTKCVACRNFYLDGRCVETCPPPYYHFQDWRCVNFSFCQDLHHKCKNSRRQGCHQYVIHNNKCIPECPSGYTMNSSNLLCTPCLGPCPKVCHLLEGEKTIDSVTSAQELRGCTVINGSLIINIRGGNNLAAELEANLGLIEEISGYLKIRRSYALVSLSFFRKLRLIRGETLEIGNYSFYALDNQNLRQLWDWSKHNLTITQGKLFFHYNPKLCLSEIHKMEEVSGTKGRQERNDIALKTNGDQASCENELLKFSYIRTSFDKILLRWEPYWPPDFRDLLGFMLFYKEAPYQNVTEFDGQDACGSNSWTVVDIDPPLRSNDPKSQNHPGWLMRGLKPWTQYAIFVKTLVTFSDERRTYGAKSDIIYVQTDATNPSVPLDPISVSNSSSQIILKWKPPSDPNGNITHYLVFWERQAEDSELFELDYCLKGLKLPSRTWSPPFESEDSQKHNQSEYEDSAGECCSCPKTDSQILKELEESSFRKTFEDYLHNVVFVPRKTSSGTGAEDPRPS
Insulin receptor, sequence (P06213 763-1382 limits assumed): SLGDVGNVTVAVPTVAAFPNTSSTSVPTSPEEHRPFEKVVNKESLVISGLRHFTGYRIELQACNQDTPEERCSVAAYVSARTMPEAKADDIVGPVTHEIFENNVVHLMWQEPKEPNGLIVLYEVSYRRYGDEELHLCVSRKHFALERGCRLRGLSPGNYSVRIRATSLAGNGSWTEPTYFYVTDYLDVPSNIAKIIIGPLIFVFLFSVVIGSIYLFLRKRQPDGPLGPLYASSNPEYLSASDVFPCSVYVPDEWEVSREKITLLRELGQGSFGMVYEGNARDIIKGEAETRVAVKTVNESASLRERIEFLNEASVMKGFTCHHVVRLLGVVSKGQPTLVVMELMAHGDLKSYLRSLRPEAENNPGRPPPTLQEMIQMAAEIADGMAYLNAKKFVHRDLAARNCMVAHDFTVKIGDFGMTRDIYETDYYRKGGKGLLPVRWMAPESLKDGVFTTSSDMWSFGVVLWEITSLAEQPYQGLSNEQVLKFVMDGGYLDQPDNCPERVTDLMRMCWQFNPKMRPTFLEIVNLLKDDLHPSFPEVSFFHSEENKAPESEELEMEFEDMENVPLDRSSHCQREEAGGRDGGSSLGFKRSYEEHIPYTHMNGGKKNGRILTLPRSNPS

[5] = Metabolic stability in human liver microsomes after 10 mins; assay type: ADME, Microsome; conditions: read-out: Stability
Rattus norvegicus [6] = test: Inhibition of ankle swelling in Freund's complete adjuvant-induced Lewis rat arthritis model at 10 mg/kg, po twice daily administered on day 8 post adjuvant challenge measured on day 21 post adjuvant challenge relative to control; assay type: functional
[7] = Half life in Sprague-Dawley rat at 2 mg/kg, iv; assay type: ADME, organism-based; parameters: dose 2 mg/kg, route intravenous; conditions: in vivo
[8] = Oral bioavailability in monkey at 10 mg/kg; assay type: ADME, organism-based, Macaca mulatta; conditions: rhesus monkey, in vivo
[9] = Half life in dog at 2 mg/kg, iv; assay type: ADME, organism-based, Canis lupus familiaris; parameters: dose 2 mg/kg, route intravenous; conditions: in vivo
[10] = target: Proto-oncogene tyrosine-protein kinase Src (Homo sapiens, UniProt P12931); test: Inhibition of Src by fluorescence polarization competition immunoassay
Proto-oncogene tyrosine-protein kinase Src, sequence (P12931 2-536 limits assumed): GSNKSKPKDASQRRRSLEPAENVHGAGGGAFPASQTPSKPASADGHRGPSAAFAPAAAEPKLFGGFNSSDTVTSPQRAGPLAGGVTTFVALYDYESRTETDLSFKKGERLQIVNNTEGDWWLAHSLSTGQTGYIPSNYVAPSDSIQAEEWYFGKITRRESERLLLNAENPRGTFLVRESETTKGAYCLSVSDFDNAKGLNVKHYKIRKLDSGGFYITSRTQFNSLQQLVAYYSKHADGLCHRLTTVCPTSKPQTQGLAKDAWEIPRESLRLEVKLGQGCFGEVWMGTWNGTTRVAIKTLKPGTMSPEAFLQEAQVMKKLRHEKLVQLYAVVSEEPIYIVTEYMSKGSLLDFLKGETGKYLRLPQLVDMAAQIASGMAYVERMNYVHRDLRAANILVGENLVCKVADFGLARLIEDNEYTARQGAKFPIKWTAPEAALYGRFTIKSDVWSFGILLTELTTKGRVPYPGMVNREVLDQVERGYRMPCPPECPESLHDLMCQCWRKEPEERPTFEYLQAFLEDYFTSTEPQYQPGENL

Rattus norvegicus [11] = test: Toxicity in rat assessed as tolerability at 40 mg/kg; assay type: organism-based; parameters: dose 40 mg/kg; conditions: in vivo
[12] = Clearance in Sprague-Dawley rat at 2 mg/kg, iv; assay type: ADME, organism-based; parameters: dose 2 mg/kg, route intravenous; conditions: in vivo
[13] = Metabolic stability in monkey liver microsomes after 10 mins; assay type: ADME, Macaca mulatta, Microsome; conditions: rhesus monkey, read-out: Stability
Rattus norvegicus [14] = test: Inhibition of ankle swelling in Freund's complete adjuvant-induced Lewis rat arthritis model at 3 mg/kg, po twice daily administered on day 8 post adjuvant challenge measured on day 21 post adjuvant challenge relative to control; assay type: functional
[15] = target: T1, Receptor-type tyrosine-protein kinase FLT3 (Homo sapiens, UniProt P36888); test: Inhibition of FLT3 by fluorescence polarization competition immunoassay
T1 sequence (P36888 whole entry): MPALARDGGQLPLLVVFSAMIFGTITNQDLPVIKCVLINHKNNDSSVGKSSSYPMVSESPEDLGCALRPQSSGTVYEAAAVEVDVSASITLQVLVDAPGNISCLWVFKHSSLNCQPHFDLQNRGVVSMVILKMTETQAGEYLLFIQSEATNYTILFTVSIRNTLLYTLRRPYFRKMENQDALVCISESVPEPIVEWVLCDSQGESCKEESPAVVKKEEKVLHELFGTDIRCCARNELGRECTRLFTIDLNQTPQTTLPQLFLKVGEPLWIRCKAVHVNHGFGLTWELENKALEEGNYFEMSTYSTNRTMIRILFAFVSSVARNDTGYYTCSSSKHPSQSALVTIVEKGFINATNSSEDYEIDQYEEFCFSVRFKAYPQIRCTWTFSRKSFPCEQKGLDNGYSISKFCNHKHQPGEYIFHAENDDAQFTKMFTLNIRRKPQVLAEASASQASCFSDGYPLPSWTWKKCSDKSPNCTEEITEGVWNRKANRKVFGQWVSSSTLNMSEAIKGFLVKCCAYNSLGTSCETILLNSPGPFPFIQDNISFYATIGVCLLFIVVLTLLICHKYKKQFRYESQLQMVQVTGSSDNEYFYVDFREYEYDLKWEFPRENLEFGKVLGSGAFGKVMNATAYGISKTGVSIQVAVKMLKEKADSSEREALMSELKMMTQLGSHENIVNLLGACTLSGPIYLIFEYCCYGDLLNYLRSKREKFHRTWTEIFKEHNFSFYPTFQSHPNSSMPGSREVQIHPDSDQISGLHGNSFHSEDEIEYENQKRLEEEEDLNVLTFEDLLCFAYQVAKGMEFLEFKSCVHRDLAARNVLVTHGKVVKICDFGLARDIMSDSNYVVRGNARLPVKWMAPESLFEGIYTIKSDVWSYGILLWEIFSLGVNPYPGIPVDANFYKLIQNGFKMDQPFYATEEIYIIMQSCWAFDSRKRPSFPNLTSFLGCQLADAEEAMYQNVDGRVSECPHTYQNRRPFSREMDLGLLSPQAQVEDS

Rattus norvegicus [16] = test: Antiinflammatory effect in Freund's complete adjuvant-induced Lewis rat arthritis model assessed as prevention of bone erosion at 3 mg/kg, po twice daily administered on day 8 post adjuvant challenge measured on day 21 post adjuvant challenge relative to control; assay type: functional, organism-based; parameters: dose 3 mg/kg
[17] = Clearance in dog at 2 mg/kg, iv; assay type: ADME, organism-based, Canis lupus familiaris; parameters: dose 2 mg/kg, route intravenous; conditions: in vivo
[18] = Volume of distribution at steady state in monkey at 2 mg/kg, iv; assay type: ADME, organism-based, Macaca mulatta; parameters: dose 2 mg/kg, route intravenous; conditions: rhesus monkey, in vivo, read-out: Vdss
[19] = Clearance in mouse at 2 mg/kg, iv; assay type: ADME, organism-based; parameters: dose 2 mg/kg, route intravenous; conditions: in vivo
[20] = Plasma concentration in Freund's complete adjuvant-induced Lewis rat arthritis model at […], po twice daily administered on day 8 post adjuvant challenge measured 7 days after last dose; assay type: ADME, organism-based; parameters: dose 0.33 mg/kg, route oral
[21] = Volume of distribution at steady state in mouse at 2 mg/kg, iv; assay type: ADME, organism-based; parameters: dose 2 mg/kg, route intravenous; conditions: in vivo, read-out: Vdss
[22] = target: Platelet-derived growth factor receptor beta (Homo sapiens, UniProt P09619); test: Inhibition of PDGFRbeta by fluorescence polarization competition immunoassay
Platelet-derived growth factor receptor beta, sequence (P09619 whole entry): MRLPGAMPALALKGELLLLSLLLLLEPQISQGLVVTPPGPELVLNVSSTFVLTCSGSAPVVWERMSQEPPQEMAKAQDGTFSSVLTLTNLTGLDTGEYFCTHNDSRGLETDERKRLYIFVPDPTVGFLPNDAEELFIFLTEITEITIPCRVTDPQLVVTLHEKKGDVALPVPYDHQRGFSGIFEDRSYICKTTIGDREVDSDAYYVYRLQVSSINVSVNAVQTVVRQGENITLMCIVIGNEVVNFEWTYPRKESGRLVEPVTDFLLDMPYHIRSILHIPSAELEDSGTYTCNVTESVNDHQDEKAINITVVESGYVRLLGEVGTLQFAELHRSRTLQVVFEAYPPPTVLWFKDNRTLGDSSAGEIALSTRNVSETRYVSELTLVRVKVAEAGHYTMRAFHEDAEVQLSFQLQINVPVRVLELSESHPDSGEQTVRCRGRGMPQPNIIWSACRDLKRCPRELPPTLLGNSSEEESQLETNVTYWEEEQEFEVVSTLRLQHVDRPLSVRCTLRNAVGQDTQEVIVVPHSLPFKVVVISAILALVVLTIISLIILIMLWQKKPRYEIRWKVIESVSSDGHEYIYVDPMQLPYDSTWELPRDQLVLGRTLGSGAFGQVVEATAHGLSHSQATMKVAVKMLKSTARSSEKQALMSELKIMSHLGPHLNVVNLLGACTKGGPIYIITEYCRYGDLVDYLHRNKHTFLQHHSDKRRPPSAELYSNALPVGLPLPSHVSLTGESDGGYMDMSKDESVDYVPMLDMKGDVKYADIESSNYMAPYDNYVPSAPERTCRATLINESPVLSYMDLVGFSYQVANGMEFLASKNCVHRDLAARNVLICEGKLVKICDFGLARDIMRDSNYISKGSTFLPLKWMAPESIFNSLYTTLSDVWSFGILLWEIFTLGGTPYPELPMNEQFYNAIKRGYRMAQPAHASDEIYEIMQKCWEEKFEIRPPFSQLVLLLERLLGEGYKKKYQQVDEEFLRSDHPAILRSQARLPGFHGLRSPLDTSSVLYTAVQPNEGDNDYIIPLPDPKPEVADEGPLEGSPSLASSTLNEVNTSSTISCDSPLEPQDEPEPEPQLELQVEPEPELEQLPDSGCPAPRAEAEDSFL

Rattus norvegicus [23] = test: Reversal of ankle swelling in streptococcal cell wall-induced Lewis rat chronic arthritis model at 3 mg/kg, po twice daily administered on day 19 post streptococcal cell wall challenge; assay type: functional, organism-based; parameters: dose 3 mg/kg
[24] = Oral bioavailability in dog at 10 mg/kg; assay type: ADME, organism-based, Canis lupus familiaris; conditions: in vivo
Rattus norvegicus [25] = test: Antiinflammatory effect in Freund's complete adjuvant-induced Lewis rat arthritis model assessed as prevention of osteoclastogenesis at 1 mg/kg, po twice daily administered on day 8 post adjuvant challenge measured on day 21 post adjuvant challenge relative to control; assay type: functional, organism-based; parameters: dose 1 mg/kg
Rattus norvegicus [26] = test: Toxicity in rat assessed as tolerability at 10 mg/kg; assay type: organism-based; parameters: dose 10 mg/kg; conditions: in vivo

Work on `CONC(=O)c1cn(-c2ccc3c(c2)CCC3)c2nc(Nc3ccc(C4CCN(C)CC4)cc3)ncc2c1=O` yielded a half-life [1] of 1.8 h, an inhibition in vivo at 1 mg/kg (Rattus norvegicus [2]) of 2% and an IC50 [3] of 6 nM. The half-life [4] was 4 h, the Activity (Mus musculus) was 90% and the IC50 (Insulin receptor) was 3700 nM. The remaining at 10 min [5] was 87%, the inhibition in vivo at 10 mg/kg (Rattus norvegicus [6]) was 17% and the half-life [7] was 4.6 h. For the same molecule, the bioavailability [8] was 16.7%, the half-life [9] was 9.3 h and the IC50 [10] was 1400 nM. For the same molecule, the Activity (Rattus norvegicus [11]) was “Non-toxic”, the clearance [12] was 11 mL/min/kg and the remaining at 10 min [13] was 14%. For the same molecule, the inhibition in vivo at 3 mg/kg (Rattus norvegicus [14]) was 8%, the IC50 [15] was 6 nM and the Activity (Rattus norvegicus [16]) was “Active”. It also gave a clearance [17] of 30 mL/min/kg, a Vd [18] of 22.6 L/kg and a clearance [19] of 34 mL/min/kg. For the same molecule, the concentration at 168 h [20] was 14 nM, the Vd [21] was 3.6 L/kg and the IC50 [22] was 150 nM. For the same molecule, the Activity (Rattus norvegicus [23]) was “Active”, the bioavailability [24] was 33% and the Activity (Rattus norvegicus [25]) was “Active”. For the same molecule, the Activity (Rattus norvegicus [26]) was “Non-toxic”.
